{"source": "paper PMC4303309", "about": "(Biochemistry, 2014)", "target": "DaCld (Dechloromonas aromatica (nom. nud.), UniProt Q47CX0)", "sequence (Q47CX0 35-282 limits assumed)": "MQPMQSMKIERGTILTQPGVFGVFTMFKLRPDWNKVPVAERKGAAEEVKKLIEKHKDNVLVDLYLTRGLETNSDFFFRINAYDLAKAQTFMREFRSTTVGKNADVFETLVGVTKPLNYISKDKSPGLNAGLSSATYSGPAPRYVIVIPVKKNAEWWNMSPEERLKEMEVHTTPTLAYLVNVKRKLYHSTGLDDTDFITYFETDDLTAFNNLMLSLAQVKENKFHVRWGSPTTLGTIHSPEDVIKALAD", "details": "MCD as HOCl trap"}
{"compound": "[O-][Cl+]O", "note": "[chlorite]", "values": [{"measurement": "reaction with chlorite in the presence of MCD (UV-visible)", "value": "no MCD-trappable HOCl could be detected for DaCld under conditions similar to those used"}]}
